From ChEMBL document CHEMBL5537205, “Discovery of D25, a Potent and Selective MNK Inhibitor for Sepsis-Associated Acute Spleen Injury” (J Med Chem, 2024)
The source made the active and inactive calls. No cut-off for these calls is given here.

Key:
Mus musculus [1] = experiment: Antiinflammatory activity in LPS-induced BALB/c sepsis mouse model assessed as decrease in MDA level in serum at 20 mg/kg, po preadministered with compound for 14 days followed by LPS stimulation and measured after 6 hrs; format: functional, organism-based; settings: time 342.0 hrs
[2] = target: T1, MAP kinase-interacting serine/threonine-protein kinase 2 (Homo sapiens, UniProt Q9HBH9); experiment: Inhibition of MNK2 (unknown origin) incubated for 60 mins in presence of ATP by HTRF assay
Target sequence in this assay (Q9HBH9 whole entry): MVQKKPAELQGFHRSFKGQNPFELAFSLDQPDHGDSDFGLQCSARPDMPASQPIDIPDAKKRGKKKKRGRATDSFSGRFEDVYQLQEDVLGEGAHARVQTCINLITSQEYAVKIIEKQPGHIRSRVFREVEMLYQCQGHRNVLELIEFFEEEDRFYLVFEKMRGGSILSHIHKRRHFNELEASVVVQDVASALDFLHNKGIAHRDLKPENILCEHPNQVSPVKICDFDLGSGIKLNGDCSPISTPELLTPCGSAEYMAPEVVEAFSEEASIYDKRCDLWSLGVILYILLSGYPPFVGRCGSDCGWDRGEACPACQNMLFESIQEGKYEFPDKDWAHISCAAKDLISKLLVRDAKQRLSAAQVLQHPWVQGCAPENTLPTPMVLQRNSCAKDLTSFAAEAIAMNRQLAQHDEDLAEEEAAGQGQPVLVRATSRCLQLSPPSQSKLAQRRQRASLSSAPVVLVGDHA

RAW264.7 [3] = experiment: Antiinflammatory activity against LPS-induced mouse RAW264.7 cells assessed as decrease in IL-6 expression at 10 to 20 uM by Western blot analysis; format: functional, cell-based; settings: dose 10-20 µM
RAW264.7 [4] = experiment: Antiinflammatory activity against LPS-induced mouse RAW264.7 cells assessed as decrease in iNOS expression at 10 to 20 uM by Western blot analysis; format: functional, cell-based; settings: dose 10-20 µM
[5] = Cmax in Sprague-Dawley rat at 5 mg/kg, iv measured after 48 hrs; format: ADME, organism-based; settings: in vivo
RAW264.7 [6] = experiment: Antiinflammatory activity against mouse RAW264.7 cells assessed as inhibition of LPS-NO production at 20 uM by Griess reagent based assay relative to control; format: functional
Mus musculus [7] = experiment: Antiinflammatory activity in LPS-induced BALB/c sepsis mouse model assessed as reversal of LPS-induced spleen […] index at 20 mg/kg, po preadministered with compound for 14 days followed by LPS stimulation and measured after 6 hrs; format: functional, organism-based; settings: time 342.0 hrs
Mus musculus [8] = experiment: Antiinflammatory activity in LPS-induced BALB/c sepsis mouse model assessed as decrease in volume of spleen nucleus at 10 to 20 mg/kg, po preadministered with compound for 14 days followed by LPS stimulation and measured after 6 hrs by H&E staining based analysis; format: functional, organism-based; settings: dose 10-20 mg/kg, time 342.0 hrs
[9] = target: T1, MAP kinase-interacting serine/threonine-protein kinase 2; experiment: Inhibition of MNK2 (unknown origin) at 1 uM relative to control
Target sequence in this assay (Q9HBH9 whole entry, looked up): as the sequence (Q9HBH9 whole entry) above

Mus musculus [10] = experiment: Antiinflammatory activity in LPS-induced BALB/c sepsis mouse model assessed as reversal of LPS-induced liver […] index at 20 mg/kg, po preadministered with compound for 14 days followed by LPS stimulation and measured after 6 hrs; format: functional, organism-based; settings: time 342.0 hrs
Mus musculus [11] = experiment: Antiinflammatory activity in LPS-induced BALB/c sepsis mouse model assessed as decrease in serum IL-1beta level at 20 mg/kg, po preadministered with compound for 14 days followed by LPS stimulation and measured after 6 hrs by ELISA; format: functional, organism-based; settings: time 342.0 hrs
Mus musculus [12] = experiment: Antiinflammatory activity in LPS-induced BALB/c sepsis mouse model assessed as decrease in serum IL-6 level at 20 mg/kg, po preadministered with compound for 14 days followed by LPS stimulation and measured after 6 hrs by ELISA; format: functional, organism-based; settings: time 342.0 hrs
[13] = AUC (0 to t) in Sprague-Dawley rat at 5 mg/kg, iv measured after 48 hrs; format: ADME, organism-based; settings: in vivo
[14] = target: T2, MAP kinase-interacting serine/threonine-protein kinase 1 (Homo sapiens, UniProt Q9BUB5); experiment: Inhibition of MNK1 (unknown origin) at 1 uM relative to control
Target sequence in this assay (Q9BUB5 whole entry, looked up): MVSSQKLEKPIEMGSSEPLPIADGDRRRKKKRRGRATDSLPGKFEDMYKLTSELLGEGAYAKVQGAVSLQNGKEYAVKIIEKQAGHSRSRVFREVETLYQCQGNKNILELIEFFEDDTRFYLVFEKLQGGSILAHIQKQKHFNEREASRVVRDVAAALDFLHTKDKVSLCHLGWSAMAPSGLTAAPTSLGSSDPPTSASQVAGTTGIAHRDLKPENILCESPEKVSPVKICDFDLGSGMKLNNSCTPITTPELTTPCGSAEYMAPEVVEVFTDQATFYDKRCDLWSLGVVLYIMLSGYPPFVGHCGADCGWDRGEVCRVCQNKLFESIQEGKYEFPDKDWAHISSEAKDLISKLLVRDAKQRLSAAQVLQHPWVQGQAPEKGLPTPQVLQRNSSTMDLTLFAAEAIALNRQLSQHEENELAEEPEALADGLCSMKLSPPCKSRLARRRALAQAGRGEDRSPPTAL

Mus musculus [15] = experiment: Antiinflammatory activity in LPS-induced BALB/c sepsis mouse model assessed as decrease in TNF-alpha level in spleen at 10 to 20 mg/kg, po preadministered with compound for 14 days followed by LPS stimulation and measured after 6 hrs by Western blot analysis; format: functional, organism-based; settings: dose 10-20 mg/kg, time 342.0 hrs
[16] = target: T2, MAP kinase-interacting serine/threonine-protein kinase 1; experiment: Inhibition of MNK1 (unknown origin) incubated for 60 mins in presence of ATP by HTRF assay
Target sequence in this assay (Q9BUB5 whole entry): as the sequence (Q9BUB5 whole entry, looked up) above

RAW264.7 [17] = experiment: Antiinflammatory activity against LPS-induced mouse RAW264.7 cells assessed as inhibition of phosphorylated eIF4E expression preincubated for 1 hrs followed by LPS stimulation and measured after 1 hrs by DAPI staining based immunofluorescence analysis; format: functional, cell-based; settings: dose 5-20 µM, time 2.0 hrs
Mus musculus [18] = experiment: Antiinflammatory activity in LPS-induced BALB/c sepsis mouse model assessed as decrease in serum TNF-alpha level at 20 mg/kg, po preadministered with compound for 14 days followed by LPS stimulation and measured after 6 hrs by ELISA; format: functional, organism-based; settings: time 342.0 hrs
[19] = Toxicity in BALB/c mouse assessed as change in body weight at 10 to 20 mg/kg, po administered for 14 days; format: organism-based; settings: in vivo, 336 h, dose 10-20 mg/kg, time 14 day
Mus musculus [20] = experiment: Antiinflammatory activity in LPS-induced BALB/c sepsis mouse model assessed as decrease in infiltration of macrophages in spleen at 10 to 20 mg/kg, po preadministered with compound for 14 days followed by LPS stimulation and measured after 6 hrs by immunohistochemistry analysis; format: functional, organism-based; settings: dose 10-20 mg/kg, time 342.0 hrs
[21] = Half-life in Sprague-Dawley rat at 20 mg/kg, po measured after 48 hrs; format: ADME, organism-based; settings: in vivo
Mus musculus [22] = experiment: Antiinflammatory activity in LPS-induced BALB/c sepsis mouse model assessed as decrease in IL-6 level in spleen at 10 to 20 mg/kg, po preadministered with compound for 14 days followed by LPS stimulation and measured after 6 hrs by Western blot analysis; format: functional, organism-based; settings: dose 10-20 mg/kg, time 342.0 hrs
Mus musculus [23] = experiment: Antiinflammatory activity in LPS-induced BALB/c sepsis mouse model assessed as decrease in serum ALT level at 10 to 20 mg/kg, po preadministered with compound for 14 days followed by LPS stimulation and measured after 6 hrs; format: functional, organism-based; settings: dose 10-20 mg/kg, time 342.0 hrs
RAW264.7 [24] = experiment: Antiinflammatory activity against LPS-induced mouse RAW264.7 cells assessed as decrease in phosphorylated eIF4E expression at 10 to 20 uM by Western blot analysis; format: functional, cell-based; settings: dose 10-20 µM
RAW264.7 [25] = experiment: Antiinflammatory activity in LPS-induced mouse RAW264.7 cells assessed as reduction in ROS level at 5 to 20 uM pretreated with compound followed by LPS stimulation and measured after 1 hrs by flow cytometric analysis; format: functional, cell-based; settings: dose 5-20 µM
Mus musculus [26] = experiment: Antiinflammatory activity in LPS-induced BALB/c sepsis mouse model assessed as decrease in serum AST level at 10 to 20 mg/kg, po preadministered with compound for 14 days followed by LPS stimulation and measured after 6 hrs; format: functional, organism-based; settings: dose 10-20 mg/kg, time 342.0 hrs
[27] = Oral bioavailability in Sprague-Dawley rat at 20 mg/kg measured after 48 hrs; format: ADME, organism-based; settings: in vivo
[28] = AUC (0 to t) in Sprague-Dawley rat at 20 mg/kg, po measured after 48 hrs; format: ADME, organism-based; settings: in vivo
Mus musculus [29] = experiment: Antiinflammatory activity in LPS-induced BALB/c sepsis mouse model assessed as decrease in iNOS level in spleen at 10 to 20 mg/kg, po preadministered with compound for 14 days followed by LPS stimulation and measured after 6 hrs by Western blot analysis; format: functional, organism-based; settings: dose 10-20 mg/kg, time 342.0 hrs
Mus musculus [30] = experiment: Antiinflammatory activity in LPS-induced BALB/c sepsis mouse model assessed as decrease in cell gap in spleen at 10 to 20 mg/kg, po preadministered with compound for 14 days followed by LPS stimulation and measured after 6 hrs by H&E staining based analysis; format: functional, organism-based; settings: dose 10-20 mg/kg, time 342.0 hrs
Mus musculus [31] = experiment: Antiinflammatory activity in LPS-induced BALB/c sepsis mouse model assessed as decrease in COX-2 level in spleen at 10 to 20 mg/kg, po preadministered with compound for 14 days followed by LPS stimulation and measured after 6 hrs by Western blot analysis; format: functional, organism-based; settings: dose 10-20 mg/kg, time 342.0 hrs
[32] = Clearance in Sprague-Dawley rat at 5 mg/kg, iv measured after 48 hrs; format: ADME, organism-based; settings: in vivo
MV4-11 = experiment: Antiproliferative activity against human MV4-11 cells assessed as inhibition of cell proliferation incubated for 48 hrs by CCK8 assay; format: functional, cell-based; settings: MV4-11, 48 h

Structure (SMILES): c1cc(-c2cc(C3CCNCC3)n[nH]2)c2cc[nH]c2n1
- Activity (Mus musculus [1]): Active
- IC50 [2]: 135 nM
- Activity (RAW264.7 [3]): Active
- Activity (RAW264.7 [4]): Active
- Cmax [5]: 3580 ng/mL
- inhibition at 20 µM (RAW264.7 [6]): 70%
- Activity (Mus musculus [7]): Active
- Activity (Mus musculus [8]): Active
- inhibition [9]: 85.8%
- Activity (Mus musculus [10]): Active
- Activity (Mus musculus [11]): Active
- Activity (Mus musculus [12]): Active
- AUCt [13]: 1618 ng·h/mL
- inhibition [14]: 88.3%
- Activity (Mus musculus [15]): Active
- IC50 [16]: 121 nM
- Activity (RAW264.7 [17]): Dose-Dependent Effect
- Activity (Mus musculus [18]): Active
- Activity [19]: Non-Toxic
- Activity (Mus musculus [20]): Active
- half-life [21]: 3.34 h
- Activity (Mus musculus [22]): Active
- Activity (Mus musculus [23]): Active
- Activity (RAW264.7 [24]): Active
- Activity (RAW264.7 [25]): Active
- Activity (Mus musculus [26]): Active
- F [27]: 1.16%
- AUCt [28]: 755.3 ng·h/mL
- Activity (Mus musculus [29]): Active
- Activity (Mus musculus [30]): Active
- Activity (Mus musculus [31]): Active
- clearance [32]: 52 mL/min/kg
- IC50 (MV4-11): 550 nM
